The values that follow come from ChEMBL document CHEMBL3045364, “Synthesis, structure, and estrogenic activity of 2- and 3-substituted 2,3-dihydro-4H-1-benzopyran-4-ones” (2013).

Assay [1] deals with MVLN. Briefly: Estrogenic activity in Homo sapiens (human) MVLN cells assessed as induction of ERE-dependent transcription at 10 uM after 24 hr by luciferase reporter gene assay. Type of assay: functional, cell-based. Background: A reporter such as luciferase makes a cellular process visible.
Assay [2] concerns the target T1, Estrogen receptor (Homo sapiens) (UniProt P03372).
T1 sequence (whole entry): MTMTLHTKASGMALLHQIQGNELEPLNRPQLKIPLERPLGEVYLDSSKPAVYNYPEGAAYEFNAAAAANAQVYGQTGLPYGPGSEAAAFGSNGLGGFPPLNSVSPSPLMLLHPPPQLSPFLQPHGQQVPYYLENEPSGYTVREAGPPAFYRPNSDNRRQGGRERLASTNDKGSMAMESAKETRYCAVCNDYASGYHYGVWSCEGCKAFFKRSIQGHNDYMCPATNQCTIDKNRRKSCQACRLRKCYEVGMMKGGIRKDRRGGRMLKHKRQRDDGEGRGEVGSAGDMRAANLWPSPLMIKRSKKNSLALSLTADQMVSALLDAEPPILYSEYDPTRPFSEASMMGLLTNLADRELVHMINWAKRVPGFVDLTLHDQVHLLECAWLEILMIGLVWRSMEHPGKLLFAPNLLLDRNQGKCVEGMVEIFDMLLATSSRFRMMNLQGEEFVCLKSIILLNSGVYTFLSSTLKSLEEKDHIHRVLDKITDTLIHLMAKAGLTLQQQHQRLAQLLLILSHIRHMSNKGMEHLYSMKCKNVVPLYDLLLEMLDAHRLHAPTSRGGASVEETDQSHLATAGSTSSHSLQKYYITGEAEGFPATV
Kind of assay: Displacement of [3H]E2 from Homo sapiens (human) recombinant ER-alpha by HAP binding assay. Background: Loss of bound radioactivity is the signal in a displacement assay; it reports binding, not function.

The test system of assay [3] is MVLN. Briefly: Estrogenic activity in Homo sapiens (human) MVLN cells assessed as induction of ERE-dependent transcription at 1 uM after 24 hr by luciferase reporter gene assay. The format is functional.
The test system of assay [4] is MVLN. Kind of assay: Estrogenic activity in Homo sapiens (human) MVLN cells assessed as induction of ERE-dependent transcription at 10 uM after 24 hr by luciferase reporter gene assay in presence of 0.1 uM antiestrogen, fulvestrant. Type of assay: functional, cell-based.

Calls of active or inactive are those of the source. The rule behind the calls is not given here.

In the case of `O=C1/C(=C/c2ccc(O)cc2)COc2ccccc21`, the result in the assay with MVLN [1] was Active. Further, the inhibition entry in assay [2] was “inactive”. The Activity in the assay on MVLN [3] was 236%. In the assay on MVLN [4], the result was inactive.
Take `COc1cccc(/C=C2\COc3ccccc3C2=O)c1`: the result with MVLN [1] was Active. Besides, the inhibition result in assay [2] was “inactive”. Also, the Activity in the assay with MVLN [3] was 243%. Besides, in the assay with MVLN [4], the outcome was inactive.
With `Cc1ccc(/C=C2\COc3ccccc3C2=O)cc1`, in assay [2], the inhibition entry was “inactive”.
In the case of `CN(C)c1ccc(/C=C2\COc3ccccc3C2=O)cc1`, the inhibition entry in assay [2] is “inactive”. For the same molecule, the Activity with MVLN [3] is recorded as 145%.
Take `COc1ccc2c(c1)OC1(CCC(c3ccccc3)CC1)CC2=O` (stereo not drawn): the inhibition entry in assay [2] was “inactive”.
As for `O=C1/C(=C/c2ccccc2)COc2ccccc21`, in assay [2], the inhibition result is “inactive”. In addition, the result in the assay with MVLN [3] was inactive.
Regarding `COc1ccc2c(c1)OC1(CCC(C(C)(C)C)CC1)CC2=O` (stereo not drawn), in assay [2], the inhibition result was “inactive”.
Regarding `O=C1CC2(CCCCC2)Oc2cc(O)ccc21`, the result in the assay with MVLN [1] was Active. Besides, the inhibition entry in assay [2] is “inactive”. Further, in the assay with MVLN [3], the Activity came out at 279%. Moreover, in the assay on MVLN [4], the outcome was inactive.
As to `COc1cc(OC)c(/C=C2\COc3ccccc3C2=O)c(OC)c1`, the inhibition entry in assay [2] was “inactive”. Moreover, in the assay on MVLN [3], the Activity was 134%.
As for `COc1ccc2c(c1)OC1(CCCCC1)CC2=O`, in assay [2], the inhibition result was “inactive”. The result with MVLN [3] was inactive.
